# Active and inactive are the calls of the source. The calls are words filed in the database; no cut-off is given here.
# Molecular target: Amyloid-beta precursor protein (Homo sapiens) (UniProt P05067)
# Test: Inhibition of HFIP-pretreated amyloid beta (1 to 42) (unknown origin) aggregation assessed as suppression of amyloid beta aggregation at 50 uM incubated for 24 hrs by Thioflavin T based fluorescence assay
# Type: cell-based
# Sequence of Amyloid-beta precursor protein (Homo sapiens) (P05067 whole entry): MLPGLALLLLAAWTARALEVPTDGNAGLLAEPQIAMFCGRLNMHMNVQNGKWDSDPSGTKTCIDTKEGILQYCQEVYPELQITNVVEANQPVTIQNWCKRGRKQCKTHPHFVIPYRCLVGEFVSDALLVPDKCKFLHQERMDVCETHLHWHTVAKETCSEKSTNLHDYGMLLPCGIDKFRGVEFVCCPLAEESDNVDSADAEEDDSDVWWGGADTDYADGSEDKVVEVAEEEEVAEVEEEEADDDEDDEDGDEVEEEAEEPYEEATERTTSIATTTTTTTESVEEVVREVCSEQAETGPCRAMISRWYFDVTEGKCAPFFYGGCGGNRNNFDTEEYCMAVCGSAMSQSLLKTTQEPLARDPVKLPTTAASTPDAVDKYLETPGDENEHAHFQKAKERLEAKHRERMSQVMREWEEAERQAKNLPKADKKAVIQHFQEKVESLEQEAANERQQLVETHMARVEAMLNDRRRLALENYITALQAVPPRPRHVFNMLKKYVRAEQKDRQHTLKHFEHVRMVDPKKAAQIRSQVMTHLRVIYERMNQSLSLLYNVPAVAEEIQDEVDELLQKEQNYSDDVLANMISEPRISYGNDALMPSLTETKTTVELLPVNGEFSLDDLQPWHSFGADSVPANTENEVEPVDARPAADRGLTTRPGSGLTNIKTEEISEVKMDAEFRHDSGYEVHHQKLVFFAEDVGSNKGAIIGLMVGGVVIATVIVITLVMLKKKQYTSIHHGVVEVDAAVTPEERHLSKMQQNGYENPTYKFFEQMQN
row,SMILES,inhibition
1,Cc1oc(=O)c2c(c1C)O[C@@]1(C)[C@H](O)[C@H](O)[C@H]3[C@@](C)(CC[C@H]4C(C)(C)[C@@]5(O)CC[C@@]43CO5)[C@@H]1C2,Active
2,Cc1oc(=O)c2c(c1C)O[C@@]1(C)[C@H](O)[C@H](O)[C@@H]3[C@@]4(C)CCC(=O)C(C)(C)[C@@H]4CC[C@@]3(C)[C@@H]1C2,Active
3,Cc1oc(=O)c2c(c1C)O[C@@]1(C)[C@H](O)[C@H](O)[C@H]3[C@@](C)(CC[C@H]4C(C)(C)[C@@H](O)CC[C@@]43CO)[C@@H]1C2,Active

# Source: ChEMBL document CHEMBL5131449, “Synthetic Biology-Based Discovery of Diterpenoid Pyrones from the Genome of Eupenicillium shearii” (J Nat Prod, 2022)
